Test results published in ChEMBL document CHEMBL1156643, “Kempopeptins A and B, serine protease inhibitors with different selectivity profiles from a marine cyanobacterium, Lyngbya sp” (J Nat Prod, 2008).

Experiments:
[1] = Inhibition of bovine alpha chymotrypsin; parameters: species or system Bos taurus
[2] = Inhibition of pig pancreatic trypsin; parameters: species or system Sus scrofa
Pancreatic elastase = Pancreatic elastase (Sus scrofa, UniProt P08419+P00772); test: Inhibition of pig pancreatic elastase; type: protein assay

Structure (SMILES)	IC50 [1] [µM]	IC50 [2] [µM]	IC50 (Pancreatic elastase) [µM]
CCCC(=O)N[C@H](C(=O)N[C@@H]1C(=O)N[C@@H](CCCCN)C(=O)N[C@H]2CC[C@@H](O)N(C2=O)[C@@H]([C@@H](C)CC)C(=O)N(C)[C@@H](Cc2ccc(OC)c(Br)c2)C(=O)N[C@@H](C(C)C)C(=O)O[C@@H]1C)C(C)C [KEMPOPEPTIN B]	> 67	8.4	> 67
CC(=O)N1CCC[C@H]1C(=O)N[C@H](C(=O)N[C@@H]1C(=O)N[C@@H](CC(C)C)C(=O)N[C@H]2CC[C@@H](O)N(C2=O)[C@@H](Cc2ccccc2)C(=O)N(C)[C@@H](Cc2ccc(O)cc2)C(=O)N[C@@H](C(C)C)C(=O)O[C@@H]1C)[C@@H](C)O [KEMPOPEPTIN A]	0.32	> 67	2.6
C/C=C1\NC(=O)[C@@H](NC(=O)[C@H](CCC(N)=O)NC(=O)CCC)[C@@H](C)OC(=O)[C@H](C(C)C)NC(=O)[C@H](Cc2ccc(O)cc2)N(C)C(=O)[C@H](Cc2ccccc2)N2C(=O)[C@H](CC[C@H]2O)NC1=O [SOMAMIDE B]	0.0095	> 30	4.2
C/C=C1\NC(=O)[C@@H](NC(=O)[C@H](CCC(N)=O)NC(=O)CCCCC)[C@@H](C)OC(=O)[C@H](C(C)C)NC(=O)[C@H](Cc2ccc(O)cc2)N(C)C(=O)[C@H](Cc2ccccc2)N2C(=O)[C@H](CC[C@H]2O)NC1=O [LYNGBYASTATIN 7]	–	> 30	–
